Test results published in PubChem BioAssay (NCI).
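Protocol summary: plate cells (96-well), add compound at 5 concentrations, incubate 48 h, interpolate endpoints linearly. The concentration for 50% growth inhibition is given as GI50. At the TGI there is no net growth.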

Experiments:
Experiment in all cases: NCI tumour cell line growth inhibition, 48 h
[1] = system: OVCAR-8 ovarian
[2] = system: M14 melanoma
[3] = system: HOP-92 NSCLC
[4] = system: SK-MEL-2 melanoma
[5] = system: MOLT-4 leukemia
[6] = system: SR leukemia
[7] = system: MDA-MB-435
[8] = system: MCF7 breast
[9] = system: NCI-H226 lung
[10] = system: CCRF-CEM leukemia

Row | Compound | TGI [1] | TGI [2] | TGI [3] | TGI [4] | TGI [5] | TGI [6] | TGI [7] | TGI [8] | TGI [9] | TGI [10] | GI50 [1] | GI50 [3] | GI50 [4] | GI50 [5] | GI50 [6] | GI50 [10] | GI50 [7] | GI50 [8] | GI50 [9]
1 | CC(C)CC1c2[nH]c3ccccc3c2C[C@H]2C(=O)NC(CCC(=O)OC(C)(C)C)C(=O)N12 (stereo not given in full) | > 100 µM | > 100 µM | 78.1 µM | 43.8 µM | 72.8 µM | 65.1 µM | 97.4 µM | > 100 µM | > 100 µM | – | – | – | – | – | – | – | – | – | –
2 | O=S(O)c1cc(Cl)cc(Cl)c1O | – | > 100 µM | – | > 100 µM | > 100 µM | – | – | – | – | > 100 µM | – | – | – | – | – | – | – | – | –
3 | COc1cc(-c2coc3c(OC)c(OC4OC(CO)C(O)C(O)C4O)c(OC)cc3c2=O)cc(OC)c1C (stereo not given) | 25.3 µM | 23.2 µM | 38.4 µM | 41.1 µM | > 36 µM | > 100 µM | 17.9 µM | 25.8 µM | 68.1 µM | > 41.7 µM | – | – | – | – | – | – | – | – | –
4 | C[C@]12CC(c3ccccc3O1)C(C(=O)NC13CC4CC(CC(C4)C1)C3)C(=O)N2 (stereo not given in full) | 93.2 µM | 35.9 µM | 55.8 µM | 43 µM | 36.7 µM | – | 65.1 µM | > 100 µM | 71.3 µM | 61.1 µM | – | – | – | – | – | – | – | – | –
5 | CC(=O)OCC1OC(O[C@@H]2c3c(O)c4c(c(O)c3C3=C(NN(c5ccc([N+](=O)[O-])cc5[N+](=O)[O-])[Se]3=O)[C@@]2(C)O)C(=O)c2ccccc2C4=O)C(OC(C)=O)C(OC(C)=O)C1OC(C)=O (stereo not given in full) | 0.562 µM | 1.6 µM | 2.05 µM | 0.615 µM | 0.23 µM | 0.502 µM | 0.332 µM | 0.498 µM | 0.947 µM | 1.08 µM | – | – | – | – | – | – | – | – | –
6 | N#C/C=C1\C=CC(O)C(O)C1OC1OC(CO)C(O)C(O)C1O (stereo not given) | > 100 µM | > 100 µM | > 100 µM | > 100 µM | > 100 µM | – | > 100 µM | > 100 µM | – | > 100 µM | – | – | – | – | – | – | – | – | –
7 | O=C(O)C1CC(c2ccccc2)=NN1c1ccccc1 (stereo not given) | > 100 µM | > 100 µM | > 100 µM | > 100 µM | > 100 µM | – | > 100 µM | > 100 µM | > 100 µM | > 100 µM | – | – | – | – | – | – | – | – | –
8 | CC1(C)COC(/C=C/C2=NC(C)(C)CO2)=N1 | 51.6 µM | 31.4 µM | 84.1 µM | 82.9 µM | 36.1 µM | 27.3 µM | 82.9 µM | 33.1 µM | 59.4 µM | 28.8 µM | – | – | – | – | – | – | – | – | –
9 | c1ccc2sc(C3(N4CCCCC4)CCCC3)cc2c1 | 24.7 µM | 33.1 µM | 25.4 µM | – | 19.8 µM | 22.3 µM | 29.4 µM | 21.5 µM | 13.5 µM | 17.7 µM | – | – | – | – | – | – | – | – | –
10 | C=C1C(=O)OC2C1C(OC(=O)/C(C)=C/C)CC1(C)C(=O)CCC(=C)C21 (stereo not given) | 29.6 µM | 23.3 µM | 19.9 µM | 24.2 µM | > 26.5 µM | > 28 µM | > 58.8 µM | 18 µM | 55.9 µM | > 80.9 µM | – | – | – | – | – | – | – | – | –
11 | COC(=O)C1=CC[C@@H]2C(C(=O)O)=CO[C@@H](OC3OC(CO)C(O)C(O)C3O)[C@H]12 (stereo not given in full) | > 300 µM | – | > 127 µM | > 300 µM | > 300 µM | – | – | > 131 µM | > 300 µM | > 119 µM | – | – | – | – | – | – | – | – | –
12 | Fc1ccc(-c2ccc(-c3nnc(-c4cc(F)c(Cl)cc4Cl)o3)o2)cc1Cl | > 100 µM | – | > 100 µM | > 100 µM | 85.2 µM | > 100 µM | > 100 µM | > 100 µM | 76.1 µM | > 100 µM | 31.9 µM | 38.5 µM | 54.8 µM | 24.2 µM | 68.5 µM | 35 µM | 34.6 µM | 26.8 µM | 20.9 µM
13 | O=S(=O)(c1ccc(I)cc1)N(c1ccccc1)S(=O)(=O)C(F)(F)C(F)(F)C(F)(F)C(F)(F)F | > 100 µM | > 100 µM | 42 µM | 90.6 µM | > 100 µM | > 100 µM | > 100 µM | > 100 µM | 58 µM | > 100 µM | – | – | – | – | – | – | – | – | –
14 | [C-]#[O+].[C-]#[O+].[Ir].[O-]c1cccc2cccnc12 | > 100 µM | – | – | > 100 µM | – | > 100 µM | – | – | > 100 µM | – | > 100 µM | – | > 100 µM | – | – | – | – | – | > 100 µM
15 | CCOC(=O)n1cncc1CC(NC(=O)Cc1c(C(=O)C=C(C)C)[nH]c2ccccc12)C(=O)OC (stereo not given) | 40.2 µM | 33.3 µM | 26.4 µM | 34.2 µM | 47.3 µM | 16.1 µM | 37.1 µM | 84.1 µM | 41.3 µM | 50.9 µM | – | – | – | – | – | – | – | – | –
16 | COc1cccc(-c2nc3c(C(=O)NCCN(C)C)cccc3[nH]2)c1 | > 58.4 µM | – | 46.7 µM | 34.4 µM | 24.4 µM | – | – | > 100 µM | 35.7 µM | > 81.6 µM | – | – | – | – | – | – | – | – | –
17 | CC(C)C(N=Cc1ccccc1O)C(=O)O (stereo not given) | > 100 µM | > 100 µM | > 100 µM | > 100 µM | > 100 µM | > 100 µM | > 100 µM | > 100 µM | > 100 µM | > 100 µM | – | – | – | – | – | – | – | – | –
18 | OC1CC(O)c2c(Cl)sc(Cl)c21 (stereo not given) | > 100 µM | > 100 µM | 56.2 µM | 49.4 µM | > 100 µM | > 100 µM | > 100 µM | > 100 µM | > 100 µM | > 100 µM | – | – | – | – | – | – | – | – | –
19 | C[N+]1(C)CCC(C#N)(c2ccccc2)CC1 | > 100 µM | > 100 µM | > 100 µM | – | > 100 µM | > 100 µM | – | > 100 µM | – | > 100 µM | – | – | – | – | – | – | – | – | –
20 | O=C1/C(=C\c2ccc(-c3ccc(Cl)cc3Cl)o2)SC2N=C(COc3ccc(Cl)cc3)NN12 (stereo not given) | > 100 µM | > 100 µM | > 100 µM | > 100 µM | > 100 µM | > 100 µM | > 100 µM | > 100 µM | > 100 µM | > 100 µM | – | – | – | – | – | – | – | – | –
21 | COc1ccc(SC(C)(SC)c2ccccn2)c(OC)n1 (stereo not given) | > 100 µM | > 100 µM | > 100 µM | > 100 µM | > 100 µM | > 100 µM | > 100 µM | > 100 µM | > 100 µM | – | – | – | – | – | – | – | – | – | –
22 | CC(O)C(O)C(N)CC=O (stereo not given) | > 500 µM | – | > 500 µM | > 500 µM | > 500 µM | – | – | > 500 µM | > 500 µM | > 500 µM | – | – | – | – | – | – | – | – | –
23 | CN(C)Cc1ccc(C(=O)Nc2ccc3ncnc(Nc4ccc(Oc5cccc(F)c5)c(Cl)c4)c3c2)cc1 | – | – | 2.44 µM | – | 3.21 µM | – | 3.25 µM | 3 µM | – | 4.65 µM | – | 1.09 µM | – | 1.55 µM | – | 1.65 µM | 1.74 µM | 1.54 µM | –
